Data taken from patent US20240156846A1, “COMPOSITIONS AND METHODS FOR TREATING NEURODEGENERATIVE DISORDERS” (Arizona Board of Regents on Behalf of the University of …, priority 2020, published 2024).
“Also recorded” adds a separate entry of the source.

How the values were obtained:
[1] = test system: primary cultures of human neurons exposed to Aβ1-42 aggregates; experiment: Prevention of neuronal loss caused by Aβ1-42 aggregates (MTT assay); assay type: cell-based; conditions: compounds at 0 h, 24 h, 48 h; 1 μM Aβ1-42 aggregates at 24 h; MTT at 72 h
Procedure: Next, we determined whether these compounds, administered independently or formulated in combination, could protect primary cultures of human neurons against neurotoxic effects of Aβ1-42 aggregates, an in vitro condition relevant to AD pathology. We evaluated both prevention and rescue of neuronal death by NADH, NAD+ and PEITC (FIG. 7). In both experiments, the cultured human neurons were exposed to 1 nM, 10 nM, 100 nM, 1 μM, 10 μM, 20 μM, 40 μM, 50 μM, 75 μM, and 100 μM of each compound, either individually or in equimolar combinations. […] In the prevention experiment, cultures were exposed to fresh compounds every 24 h over the 48 h timeline of this experiment (i.e., 0 h, 24 h, and 48 h) to resemble a pharmacological regimen of once daily dosing. At 24 h, we added 1 μM of Aβ1-42 aggregates to the cell culture media and measured cell viability at 72 h using the MTT assay (Online Method, FIG. 7A). […] In the rescue experiments, primary cultures of human neurons were exposed to 1 μM of Aβ1-42 aggregates at 0 h for a period of 48 h to model existing cellular damage under conditions relevant to AD. After 24 h incubation with Aβ1-42, we added NADH, NAD+, PEITC, NADH/PEITC, and NAD+/PEITC directly to the culture media containing Aβ1-42 and incubated the cultured human neurons for an additional 24 h when cell viability was measured using our MTT assay.
To determine the optimal dosage of the two formulations for neuronal rescue and microglial phagocytosis stimulation, we treated the primary cultures of human neurons and primary cultures of human microglia in the prevention settings respectively with exhaustive combination of individual dosage of 10 μM, 20 μM, 40 μM, 50 μM, 75 μM, and 100 μM.

3xTg AD mice = experiment: Treatment of 3xTg AD mice: brain Aβ, tau and proteomics; assay type: in vivo, mouse; conditions: for levels of neurotoxic Aβ42 / ratio of Aβ42 to Aβ40: 3xTg AD mice treated with individual compound; for ratio of p231-tau to total tau: 3xTg mice treated with individual compound
[2] = test system: humanized-Tau (hTau) mice; experiment: Treatment of humanized-Tau (hTau) mice: brain p231Tau; assay type: in vivo, mouse
[3] = human subjects, after the consumption of 100 g watercress; cited from earlier work
[4] = rat, in vivo, cited from earlier work
[5] = cited from earlier work
[6] = test system: primary cultures of human microglia exposed to Aβ1-42 aggregates; experiment: Aβ1-42 uptake (phagocytosis) by microglia, rescue setting; assay type: cell-based; conditions: 10 dosages tested
Description: There is considerable interest in microglia-targeted therapies for AD, in part due to the phagocytotic functionality of these cells that can promote neuronal recovery and/or repair. Indeed, phagocytosis of insoluble Aβ by microglia can facilitate CNS clearance of Aβ aggregates and limit formation of amyloid plaques (Ronaldson & Davis, 2020). Indeed, Aβ can bind to receptors at the microglial cell surface, an event that can trigger release of proinflammatory cytokines such as TNF-α and IL-1β, factors that are known to cause neuronal damage (Wang et al. 2015). Additionally, Jiang and colleagues discovered that triggering receptor expressed in myeloid cells 1 (TREM1) can promote Aβ phagocytosis by microglia (Jiang et al. 2016). […] To determine if the natural compounds individually or in combination could promote phagocytosis in microglia, we designed prevention and rescue experiments to measure Aβ1-42 uptake in primary cultures of human microglia via intracellular fluorescence (Online method). […] After 24 h, we added 1 μM of Aβ1-42 aggregates to the treated media and measured cell viability at 72 h using the Aβ uptake assay (Online Method, FIG. 8A). […] Uptake of Aβ1-42 was then measured 24 h later (i.e., at the 48 h experimental time point, FIG. 8B).

myrosinase = conditions: cited from earlier work

## S=C=NCCc1ccccc1 [PEITC, phenethyl isothiocyanate]
[1]
  prevention of neuronal loss as compared to the negative control condition: significantly prevented neuronal loss
3xTg AD mice
  levels of neurotoxic Aβ42: significant reduction
  ratio of Aβ42 to Aβ40: significantly reduced; also recorded: significant reduction
  ratio of p231-tau to total tau: significantly reduced
[2]
  level of hyperphosphorylated Tau (p231Tau): significant reduction
  ratio of p231Tau to Tau: significant reduction
[3]
  peak plasma concentration: about 928.5±250 nM
[4]; po
  bioavailability: 90-114%
  clearance: low
  protein binding: high
[4]
  bioavailability with repeated dosing: Increased

## C[C@@]1(c2cc(NC(=O)c3ccc(C#N)cn3)ccc2F)C=CSC(N)=N1 [atabecestat]
[5]; phase two clinical trials and long-term safety and tolerability study
  cognitive assessment scores in treated patients: trend of worsening cognitive assessment scores

## CC(C)[C@H](O)C(=O)N[C@@H](C)C(=O)N[C@@H]1C(=O)N(C)CCc2ccccc21 [semagacestat]
[5]; phase three trial
  functional or cognitive ability in treated patients: lack of efficacy and a worsening of function and cognition

## CN1C(=N)N[C@](C)(c2cc(NC(=O)c3ccc(F)cn3)ccc2F)CS1(=O)=O [Verubecestat]
[5]; patients with AD / early-stage AD
  CSF Aβ levels: decrease CSF Aβ levels

## OC[C@H]1O[C@@](CO)(O[C@H]2O[C@H](CO)[C@@H](O)[C@H](O)[C@H]2O)[C@@H](O)[C@@H]1O [sucrose, reference compound]
[1]
  prevention of neuronal loss as compared to the negative control condition: did not prevent any neuronal death

## NC(=O)c1ccc[n+]([C@@H]2O[C@H](COP(=O)([O-])OP(=O)(O)OC[C@H]3O[C@@H](n4cnc5c(N)ncnc54)[C@H](O)[C@@H]3O)[C@@H](O)[C@H]2O)c1 [NAD+, oxidized nicotinamide adenine dinucleotide]
[1]
  prevention of neuronal loss as compared to the negative control condition: significantly prevented neuronal loss
[6]
  number of dosages that significantly rescued microglial phagocytosis of Aβ1-42: eight
3xTg AD mice
  levels of neurotoxic Aβ42: significant reduction
  ratio of Aβ42 to Aβ40: significantly reduced; also recorded: significant reduction
  ratio of p231-tau to total tau: significantly reduced

## O=S(=O)(O)O [Sulfate]
myrosinase
  inhibition of myrosinase: competitive inhibitor

## NC(=O)C1=CN([C@@H]2O[C@H](COP(=O)(O)OP(=O)(O)OC[C@H]3O[C@@H](n4cnc5c(N)ncnc54)[C@H](O)[C@@H]3O)[C@@H](O)[C@H]2O)C=CC1 [NADH, reduced nicotinamide adenine dinucleotide]
[1]
  prevention of neuronal loss as compared to the negative control condition: significantly prevented neuronal loss
[6]
  number of dosages that significantly rescued microglial phagocytosis of Aβ1-42: three
3xTg AD mice
  levels of neurotoxic Aβ42: significant reduction
  ratio of Aβ42 to Aβ40: significantly reduced; also recorded: significant reduction
  ratio of p231-tau to total tau: significantly reduced

## O=S(=O)(O)ON=C(Cc1ccccc1)SC1OC(CO)C(O)C(O)C1F (stereo not drawn) [2-F-2-deoxybenzylglucosinolate]
myrosinase
  inhibition of myrosinase: inhibits the enzyme by trapping one of the glutamic acid residues in the active site, Glu 409
